From patent US12186311B2, “Antiproliferative compounds and second active agents for combined use” (Celgene Corporation, priority 2019, dated 2025)

Experiments:
Type in all cases: cell-based
[1] = system: MM cell lines OPM.2-P10, H929-1051, KMS12BM PR, L363, JJN3; test: 7 day combination assay (Annexin V/7-AAD flow cytometry, fractional product method), MM cell line panel; details: panel of 5 MM cell lines, 7 day assay, 3 days priming with second agent
Procedure: Five MM cell lines with acquired or inherent resistance to lenalidomide or pomalidomide were included in the studies (OPM.2-P10, H929-1051, KM[…] PR, L363, and JJN3). […] The assay was performed in a 96-well plate. All MM cell lines were cultured in an incubator at 37° C. with 5% CO2 using the indicated cell culture media containing 1×Penicillin-Streptomycin. The MM cells were primed for 3 days with these second agents at the single agent IC50 value. […] Compound 2 was added to the cells at a dose range of 30 μM-0.00018 μM, depending on the cell line, for a 8 point dose response curve. The cells were incubated at 37° C. for an additional 4 days. At the end of the 7 day treatment, the MM cells were stained with Annexin V and 7-AAD and analyzed on a flow cytometer. Live MM cells were identified as Annexin V and 7-AAD double negative cells. In these experiments, synergy calculations were performed using the fractional product method (Webb, 1963).

[2] = system: AMO1 (parental) cell line; test: Cell proliferation, combination with Compound 2, combination index (Calcusyn), AMO1; details: AMO1, 3 days
Procedure: (§1) AMO1 (parental) and AMO1-PR (pomalidomide resistant) cell lines were treated with various doses of Compound 2 in combination with increasing doses of an MEK inhibitor trametinib for 3 days. Cell proliferation was analyzed using thymidine incorporation assays. Combination index values were calculated by Calcusyn and values below 10^0 represented the synergy between the combination treatments. The results are shown in FIG. 4A (AMO1), FIG. 4B (AMO1 combination index), FIG. 4C (AMO1-PR), and FIG. 4D (AMO1-PR combination index), respectively.
(§2) AMO1 and AMO1-PR (pomalidomide resistant) cell lines were treated with increasing doses of Compound 2 in combination with a PLK1 inhibitor (BI2536). Changes in cell proliferation were studied in response to monotherapy and combinations at Day 3 post treatment. Combination Index was calculated using Calcusyn based method. Combination index values were calculated by Calcusyn and values below 10^0 represented the synergy between the combination treatments. PLK1 is one of the key target gene of MDMS8 (molecularly defined myeloma segment 8), a high risk cluster identified from myeloma genome project. The results are shown in FIG. 6A (AMO1), FIG. 6B (AMO1 combination index), FIG. 6C (AMO1-PR), and FIG. 6D (AMO1-PR combination index), respectively. Inhibition of MDMS8 target gene PLK1 with Compound 2 is synergistic in AMO1 and AMO1-PR cells.
(§3) AMO1 and AMO1-PR (pomalidomide resistant) cell lines were treated with increasing doses of Compound 2 in combination with an NEK2 inhibitor (JH295). Changes in cell proliferation were studied in response to monotherapy and combinations at Day 3 post treatment. Combination index values were calculated by Calcusyn and values below 10^0 represented the synergy between the combination treatments. NEK2 is one of the key target gene of MDMS8 (molecularly defined myeloma segment 8), a high risk cluster identified from myeloma genome project. The results are shown in FIG. 7A (AMO1 combination index) and FIG. 7B (AMO1-PR combination index), respectively. Inhibition of MDMS8 target gene NEK2 with Compound 2 is synergistic in AMO1 and AMO1-PR cells.
(§4) AMO1, AMO1-PR (pomalidomide resistant), K12PE and K12PE-PR (pomalidomide resistant) cell lines were treated with increasing doses of Compound 2 in combination with an AURKB inhibitor (AZD 1152). […] Combination index values were calculated by Calcusyn and values below […] represented the synergy between the combination treatments. […]
(§5) AMO1, AMO1-PR (pomalidomide resistant) cell lines were treated with increasing doses of Compound 2 in combination with a BIRC5 inhibitor (YM155). […] Combination index values were calculated by Calcusyn and values below 10^0 represented the synergy between the combination treatments. […]

[3] = system: AMO1-PR (pomalidomide resistant) cell line; test: Cell proliferation, combination with Compound 2, combination index (Calcusyn), AMO1-PR; details: 3 days
Procedure: as §1, §2, §3, §4, §5

[4] = system: panel of MM cell lines (H929-1051, KMS11, KMS-12PE, L363, OPM-P10, RPMI8226); test: Compound 2 combination with small molecule inhibitors, 3 day Cell Titer-Glo, Highest Single Agent synergy; details: six MM cell lines, 3 days, Highest Single Agent method
Procedure: The combination experiments were run twice, each time with replicate data on separate plates. Compounds were pre-spotted into the appropriate wells of 384-well plates using an acoustic dispenser. All MM cell lines were cultured in an incubator at 37° C. with 5% CO2 using the indicated cell culture media containing 1× Penicillin-Streptomycin. Cells were added to the compound containing 384-well plates using a Multidrop Combi Reagent Dispenser and allowed to incubate for 3 days at 37° C. with 5% CO2. After 3 days, cells were assessed for their level of ATP content via Cell Titer-Glo measured on a luminescence detector (PerkinElmer Envision).
The Highest Single Agent (HAS) method was used to detect synergy in the dose response curve data. Combinations were analyzed from a response surface perspective.

| SMILES | synergy in combination with Compound 2 [1] | synergy in combination with Compound 2 [4] | also measured |
| --- | --- | --- | --- |
| COc1cc(C)[nH]c(=O)c1CNC(=O)c1c(C)n([C@H](C)C2CCN(CC(F)(F)F)CC2)c2ccccc12 [CPI-1205, (R)—N-((4-methoxy-6-methyl-2-oxo-1,2-dihydropyridin-3-yl)methyl)-2-methyl-1-(1-(1-(2,2,2-trifluoroethyl)piperidin-4-yl)ethyl)-1H-indole-3-carboxamide] | synergistic in all 5 cell lines tested | – | – |
| CC(C)N(C[C@H]1O[C@@H](n2cnc3c(N)ncnc32)[C@H](O)[C@@H]1O)C1CC(CCc2nc3cc(C(C)(C)C)ccc3[nH]2)C1 (stereo partly drawn) [pinometostat, (2R,3R,4S,5R)-2-(6-amino-9H-purin-9-yl)-5-((((1r,3S)-3-(2-(5-(tert-butyl)-1H-benzo[d]imidazol-2-yl)ethyl)cyclobutyl)(isopropyl)amino)methyl)tetrahydrofuran-3,4-diol] | Synergy was also evident | – | – |
| C#CC(=O)Nc1ccc2c(c1)/C(=C/c1[nH]c(CC)nc1C)C(=O)N2 [JH295, (Z)—N-(3-((2-ethyl-4-methyl-1H-imidazol-5-yl)methylene)-2-oxoindolin-5-yl)propiolamide] | – | – | synergy with Compound 2 (combination index) [2]: synergistic; synergy with Compound 2 (combination index) [3]: synergistic |
| Cc1cnc(Nc2ccc(OCCN3CCCC3)cc2)nc1Nc1cccc(S(=O)(=O)NC(C)(C)C)c1 [fedratinib, N-tert-butyl-3-[(5-methyl-2-{4-[2-(pyrrolidin-1-yl)ethoxy]anilino}pyrimidin-4-yl)amino]benzenesulfonamide] | – | synergy in one, two, or three out of the six cell lines tested | – |
| O=C(/C=C\n1cnc(-c2cc(C(F)(F)F)cc(C(F)(F)F)c2)n1)NNc1cnccn1 [selinexor, (2Z)-3-{3-[3,5-bis(trifluoromethyl)phenyl]-1H-1,2,4-triazol-1-yl}-N′-(pyrazin-2-yl)prop-2-enehydrazide] | – | synergy in one, two, or three out of the six cell lines tested | – |
| CC[C@@H]1C(=O)N(C)c2cnc(Nc3ccc(C(=O)NC4CCN(C)CC4)cc3OC)nc2N1C1CCCC1 [BI2536, (R)-4-((8-cyclopentyl-7-ethyl-5-methyl-6-oxo-5,6,7,8-tetrahydropteridin-2-yl)amino)-3-methoxy-N-(1-methylpiperidin-4-yl)benzamide] | – | – | synergy with Compound 2 (combination index) [2]: synergistic; synergy with Compound 2 (combination index) [3]: synergistic |
| COCCn1c2c([n+](Cc3cnccn3)c1C)C(=O)c1ccccc1C2=O.[Br-] [YM155, 1-(2-methoxyethyl)-2-methyl-4,9-dioxo-3-(pyrazin-2-ylmethyl)-4,9-dihydro-1H-naphtho[2,3-d]imidazol-3-ium bromide] | – | – | synergy with Compound 2 (combination index) [2]: synergistic; synergy with Compound 2 (combination index) [3]: synergistic |
| CCN(c1cc(-c2ccc(CN3CCOCC3)cc2)cc(C(=O)NCc2c(C)cc(C)[nH]c2=O)c1C)C1CCOCC1 [tazemetostat, N-[(1,2-dihydro-4,6-dimethyl-2-oxo-3-pyridinyl)methyl]-5-[ethyl(tetrahydro-2H-pyran-4-yl)amino]-4-methyl-4′-(4-morpholinylmethyl)-[1,1′-biphenyl]-3-carboxamide] | synergistic in all 5 cell lines tested | synergy in one, two, or three out of the six cell lines tested | – |
| C=CC(=O)N1CCC[C@@H](n2nc(-c3ccc(Oc4ccccc4)cc3)c3c(N)ncnc32)C1 [ibrutinib, 1-[(3R)-3-[4-amino-3-(4-phenoxyphenyl)-1Hpyrazolo[3,4-d]pyrimidin-1-yl]-1-piperidinyl]-2-propen-1-one] | – | synergy in one, two, or three out of the six cell lines tested | – |
| CC(C)N(CCCNC(=O)Nc1ccc(C(C)(C)C)cc1)C[C@H]1O[C@@H](n2cc(Br)c3c(N)ncnc32)[C@H](O)[C@@H]1O [SGC0946, 5 bromo-7-[5-deoxy-5-[[3-[[[[4-(1,1-dimethylethyl)phenyl]amino]carbonyl]amino]propyl](1-methylethyl)amino]-β-D-ribofuranosyl]-7H-pyrrolo[2,3-d]pyrimidin-4-amine] | – | synergy in one, two, or three out of the six cell lines tested | – |
| CO[C@H]1C[C@@H]2CC[C@@H](C)[C@@](O)(O2)C(=O)C(=O)N2CCCC[C@H]2C(=O)O[C@H]([C@H](C)C[C@@H]2CC[C@@H](OCCO)[C@H](OC)C2)CC(=O)[C@H](C)/C=C(\C)[C@@H](O)[C@@H](OC)C(=O)[C@H](C)C[C@H](C)/C=C/C=C/C=C/1C [everolimus, 40-O-(2-hydroxyethyl)-rapamycin] | – | synergy in combination with Compound 2 in five out of the six cell lines tested | – |
| C[C@]1(O)C[C@@H](c2nc(-c3ccc4ccc(-c5ccccc5)nc4c3)c3c(N)nccn32)C1 [linsitinib, cis-3-[8-amino-1-(2-phenyl-7-quinolinyl)imidazo[1,5-a]pyrazin-3-yl]-1-methylcyclobutanol] | – | synergy in combination with Compound 2 in four out of the six cell lines tested | – |
| Nc1ncn([C@@H]2O[C@H](CO)[C@@H](O)[C@H]2O)c(=O)n1 [azacitidine, 4-amino-1-β-D-ribofuranosyl-1,3,5-triazin-2(1H)-one] | synergy in 4 of the cell lines tested | – | – |
